# Test results reported in PMC10763179 (Open access Macedonian journal of medical sciences, 2023).
# Tests used:
# [1] = test system: larvae of marine crustaceans Artemia salina (Leach); test: Brine shrimp toxicity bioassay; type: in vivo; conditions: 24 h of exposure
# [2] = test system: HL-60(TB); test: NCI60 screen; type: cell-based; conditions: Homo sapiens, HL-60, read-out: inhibition of cell growth
# [3] = test system: K-562; test: NCI60 screen; type: cell-based; conditions: Homo sapiens, K562, read-out: inhibition of cell growth
# [4] = test system: SR; test: NCI60 screen; type: cell-based; conditions: Homo sapiens, read-out: inhibition of cell growth
# [5] = test system: COLO 205; test: NCI60 screen; type: cell-based; conditions: Homo sapiens, COLO 205, read-out: inhibition of cell growth
# [6] = test system: HCT-116; test: NCI60 screen; type: cell-based; conditions: Homo sapiens, HCT-116, read-out: inhibition of cell growth
# [7] = test system: HCT-15; test: NCI60 screen; type: cell-based; conditions: Homo sapiens, HCT-15, read-out: inhibition of cell growth
# [8] = test system: HT29; test: NCI60 screen; type: cell-based; conditions: Homo sapiens, HT-29, read-out: inhibition of cell growth
# [9] = test system: SW-620; test: NCI60 screen; type: cell-based; conditions: Homo sapiens, SW-620, read-out: inhibition of cell growth
# [10] = test system: MDA-MB-435; test: NCI60 screen; type: cell-based; conditions: Homo sapiens, MDA-MB-435, read-out: inhibition of cell growth
# [11] = test system: UACC-257; test: NCI60 screen; type: cell-based; conditions: Homo sapiens, UACC-257, read-out: inhibition of cell growth
# [12] = test system: UACC-62; test: NCI60 screen; type: cell-based; conditions: Homo sapiens, UACC-62, read-out: inhibition of cell growth
# [13] = test system: OVCAR-3; test: NCI60 screen; type: cell-based; conditions: Homo sapiens, OVCAR-3, read-out: inhibition of cell growth
# [14] = test system: CAKI-1; test: NCI60 screen; type: cell-based; conditions: Homo sapiens, CAKI-1, read-out: inhibition of cell growth
# [15] = test system: RXF 393; test: NCI60 screen; type: cell-based; conditions: Homo sapiens, RXF 393, read-out: inhibition of cell growth
# [16] = test system: TK-10; test: NCI60 screen; type: cell-based; conditions: Homo sapiens, TK-10, read-out: inhibition of cell growth
# [17] = test system: DU-145; test: NCI60 screen; type: cell-based; conditions: Homo sapiens, DU-145, read-out: inhibition of cell growth
# [18] = test system: MCF7; test: NCI60 screen; type: cell-based; conditions: Homo sapiens, MCF7, read-out: inhibition of cell growth
# [19] = test system: BT-549; test: NCI60 screen; type: cell-based; conditions: Homo sapiens, BT-549, read-out: inhibition of cell growth
# [20] = test system: T-47D; test: NCI60 screen; type: cell-based; conditions: Homo sapiens, T47D, read-out: inhibition of cell growth
# [21] = test system: NCI60 human tumor cell lines; test: NCI60 screen; type: cell-based
# [22] = Effect on hematopoiesis
# [23] = Immunosuppressive activity
compound,measurement,setting,value
"CC1=CCC23OC2(C)CCC2C(CN(C)C)C(=O)OC2C13.Cl (stereo not drawn) [13-dimethylamino-1,10β-epoxy-5,7α,6, 11 β(H)-guai-3,4-ene-6,12-olide hydrochloride, reference compound]",LD500,[1],20.6 mg/mL
"C=C1C(=O)O[C@@H]2[C@H]3C(C)=CC[C@@]34O[C@@]4(C)CC[C@@H]12 [Arglabin 6, arglabin]",inhibition at 8.3 µM,[2],97.4%
same,inhibition at 8.3 µM,[3],73.8%
same,inhibition at 8.3 µM,[4],97.8%
same,inhibition at 8.3 µM,[5],57.6%
same,inhibition at 8.3 µM,[6],82.6%
same,inhibition at 8.3 µM,[7],75.4%
same,inhibition at 8.3 µM,[8],59.3%
same,inhibition at 8.3 µM,[9],70.9%
same,inhibition at 8.3 µM,[10],65.8%
same,inhibition at 8.3 µM,[11],55.9%
same,inhibition at 8.3 µM,[12],74.2%
same,inhibition at 8.3 µM,[13],69.6%
same,inhibition at 8.3 µM,[14],73.4%
same,inhibition at 8.3 µM,[15],67.3%
same,inhibition at 8.3 µM,[16],94.3%
same,inhibition at 8.3 µM,[17],88.5%
same,inhibition at 8.3 µM,[18],71.1%
same,inhibition at 8.3 µM,[19],72.1%
same,inhibition at 8.3 µM,[20],73.5%
same,inhibition at 8.3 µM,"[21]; Homo sapiens, read-out: average value of cell growth inhibition for all 60 NCI60 human tumor cell lines",45.9%
same,"Mean tumor cell growth, %","[21]; mean over NCI60 panel, single dose 8.3 μM",54.15%
same,depressant effect on hematopoiesis,[22],does not have a depressant effect on hematopoiesis
same,immunosuppressive activity,[23],does not exhibit immunosuppressive activity
C[S+](C)[O-] [dimethyl sulfoxide],LD500,[1],930.27 mg/mL
hydroxyarglabin acetate [hydroxyarglabin acetate 12],IC50 against the larvae of Artemia salina,[1],77.8 µg/mL
same,LD500,[1],77.8 mg/mL
